We go through three molecules from patent EP1003557B1, “NEW SALTS WITH BENEFICIAL ORGANOLEPTIC PROPERTIES” (CHINOIN Gyogyszer és Vegyészeti Termékek Gyára RT., priority 1997, dated 1999).

Structures can show the parent of a compound that is named as a salt.

In the test the test system is Human U937 (cell line) PDE-IV enzime. Nature of the test: Cyclic nucleotide phosphodiesterase (PDE-IV) enzyme inhibition, two-step [3H]cAMP procedure. It is filed as biochemical. The conditions noted are these: [3H]cAMP substrate, 30 °C for 30 min, Tris buffer pH=7.6. As for the experimental part:
Cyclic nucleotide phosphodiesterase activity is measured by a two-step procedure. […] The reaction is initiated by addition of the substrate. […] After cooling the tubes, 50µl of Crotalux atrox (0.5 mg/ml dest. water) is added and the samples are incubated and shaked for 30 min at 37°C. […] The mixture of 500 µl supernatant and 5 ml of liquid scintillation cocktail is measured to determine the amount of formed ^3H adenosine.
Regarding `CCOc1ccc(C=C2NCCc3cc(OCC)c(OCC)cc32)cc1OCC` [Example 2, drotaverin cyclamate], half-maximal inhibition (IC50) was put at 1 µM. In other words, the single-digit micromolar range.

Consider `CCOc1ccc(/C=C2\NCCc3cc(OCC)c(OCC)cc32)cc1OCC` [drotaverin hydrochloride, reference compound], for which the IC50 (usually the concentration at which inhibition is half-maximal) came out at 4.7 µM.

“drotaverin-saccharimide ethanolate [Example 1]” yielded an IC50 of 3.8 µM.
